Key:
[1] = system: Human ovarian cancer A2780 cell line; assay: Potentiation of antitumor effect of paclitaxel, A2780 subcutaneous implant in nude mice (Test Example 1); format: in vivo, BALB/cA Jcl-nu/nu mice; conditions: paclitaxel 60 mg/kg/day i.v. day 1, 8
Method: Human ovarian cancer A2780 cell line was subcutaneously implanted into the right flank of 7-week-old male BALB/cA Jcl-nu/nu mice. After the implant, the length (mm) and the width (mm) of the tumor were measured, and the tumor volume (TV) was calculated. Thereafter, the mice were divided into groups so that the average TV is equalized in each group. The day of grouping (n=5) is referred to as Day 0. […] Test liquids for the groups receiving only Compound-I were prepared by diluting Compound-I with 0.5% hydroxypropyl methylcellulose (HPMC) so as to enable administration at a Compound-I dose of 8 mg/kg/day, 16 mg/kg/day, and 24 mg/kg/day. […] In the groups receiving the two drugs, Compound-I was administered at doses of 8 mg/kg/day, 16 mg/kg/day, and 24 mg/kg/day, and paclitaxel was administered at a dose of 60 mg/kg/day. […] In the figure, the asterisk represents a result having a statistically significant difference compared with the single-drug administration group. FIG. 1 and Table 10 show the results.

[2] = system: Human stomach cancer cell line (NCI-N87); assay: Potentiation of antitumor effect of paclitaxel, NCI-N87 subcutaneous implant in nude mice (Test Example 2); format: in vivo, BALB/cA Jcl-nu/nu mice; conditions: paclitaxel 60 mg/kg/day i.v. day 1, 8
Method: In the figure, the asterisk represents a result having a statistically significant difference compared with the single-drug administration group. FIG. 1 and Table 10 show the results. […] Ltd.) was prepared to enable administration at a paclitaxel dose of 60 mg/kg/day. Further, test liquids for the groups receiving only Compound-I were prepared to enable administration at Compound-I doses of 8 mg/kg/day, 16 mg/kg/day, and 24 mg/kg/day. […] In the groups receiving the two drugs, Compound-I was administered at doses of 8 mg/kg/day, 16 mg/kg/day, and 24 mg/kg/day, and paclitaxel was administered at a dose of 60 mg/kg/day. The evaluation was performed in the same manner as in Test Example 1. The effect of the combined administration was also statistically determined in the same manner as in Test Example 1. In the figure and the table, the asterisk represents a result having a statistically significant difference compared with the single-drug administration group. FIG. 3 and Table 11 show the results.

[3] = system: Human stomach cancer cell line (NCI-N87); assay: Potentiation of antitumor effect of lapatinib, NCI-N87 subcutaneous implant in nude mice (Test Example 4); format: in vivo, BALB/cA Jcl-nu/nu mice; conditions: lapatinib 100 mg/kg/day p.o. day 1-14 (q.d.)
Method: In the figure, the asterisk represents a result having a statistically significant difference compared with the single-drug administration group. FIG. 1 and Table 10 show the results. […] Lapatinib was prepared by adjusting its dose to 100 mg/kg/day. Further, the test liquid of Compound-I was prepared by adjusting its dose to 16 mg/kg/day. […] The effect of the combined administration was also statistically determined in the same manner as in Test Example 1. In the figure and the table, the asterisk represents a result having a statistically significant difference compared with the single-drug administration group. FIG. 7 and Table 13 show the results.

[4] = system: Human ovarian cancer cell line (A2780); assay: Potentiation of antitumor effect of doxorubicin, A2780 subcutaneous implant in nude mice (Test Example 6); format: in vivo, BALB/cA Jcl-nu/nu mice; conditions: doxorubicin 7 mg/kg/day day 1, 8
Method: In the groups receiving only Compound-I, the test liquid was prepared by diluting Compound-I with 0.5% HPMC to enable administration at a Compound-I dose of 16 mg/kg/day. […] The effect of the combined administration was also statistically determined in the same manner as in Test Example 1.

[5] = system: Human ovarian cancer cell line (A2780); assay: Potentiation of antitumor effect of irinotecan, A2780 subcutaneous implant in nude mice (Test Example 5); format: in vivo, BALB/cA Jcl-nu/nu mice; conditions: irinotecan 75 mg/kg/day day 1, 8; route printed p.o.
Method: (§1) As an index of antitumor effect, the TV at Day 15 was measured for each of the drug administration groups, and the relative tumor volume (RTV) relative to Day 1 and T/C (%) were calculated by the following formulas to evaluate the antitumor effect.
TV (mm^3)=(length×width^2)/2 RTV=(TV at Day 15)/(TV at Day 1) T/C(%)=(average RTV value of the test liquid administration group)/(average RTV value of the control group)×100
Human ovarian cancer cell line (A2780) was subcutaneously implanted into the right flank of 7-week-old male BALB/cA Jcl-nu/nu mice, and was used in the same manner as in Test Example 1. […] Further, the test liquid of Compound-I was prepared by adjusting its dose to 16 mg/kg/day.
The effect of the combined administration was also statistically determined in the same manner as in Test Example 1. […] FIG. 9 and Table 14 show the results. Further, the change in the body weight over time was evaluated as an index of toxicity in the same manner as in Test Example 1.

[6] = system: Human stomach cancer cell line (NCI-N87); assay: Potentiation of antitumor effect of everolimus, NCI-N87 subcutaneous implant in nude mice (Test Example 7); format: in vivo, BALB/cA Jcl-nu/nu mice; conditions: everolimus 5 mg/kg/day p.o. day 1-14
Method: as §1, with “effect. […] In the figure, the asterisk represents a result having a statistically significant difference compared with the single-drug administration group.” for “effect.”
FIG. 1 and Table 10 show the results. TV (mm^3)=(length×width^2)/2 RTV=(TV at Day 15)/(TV at Day 1) T/C(%)=(average RTV value of the test liquid administration group)/(average RTV value of the control group)×100
Human stomach cancer cell line (NCI-N87) was subcutaneously implanted into the right flank of 7-week-old male BALB/cA Jcl-nu/nu mice, and was used in the same manner as in Test Example 1.
In the group receiving only everolimus (IS Chemical Technology), the test liquid was prepared to enable administration at an everolimus dose of 5 mg/kg/day. A vehicle of 5% ethyl alcohol/5% PEG400/4% Tween 20/86% distilled water was used. In the groups receiving only Compound-I, the test liquid was prepared by diluting Compound-I with 0.5% HPMC to enable administration at a Compound-I dose of 16 mg/kg/day. In the combined administration group, Compound-I was administered at a dose of 16 mg/kg/day, and everolimus was administered at a dose of 5 mg/kg/day. Both Compound-I and everolimus were orally administered once a day for 14 days from Day 1, and the evaluation was performed in the same manner as in Test Example 1. FIG. 13 and Table 16 show the results.
In the figure and the table, the asterisk represents a result having a statistically significant difference compared with the single-drug administration group.

[7] = system: Human ovarian cancer cell line (A2780); assay: Potentiation of antitumor effect of carboplatin, A2780 subcutaneous implant (Test Example 3); format: in vivo, nude rats; conditions: carboplatin 50 mg/kg/day i.v. day 1, 8
Method: In the figure, the asterisk represents a result having a statistically significant difference compared with the single-drug administration group. FIG. 1 and Table 10 show the results. […] Carboplatin was prepared by diluting a […] injection (Bristol-Myers Squibb, 50 mg/5 mL) two-fold with physiological saline to enable administration at a carboplatin dose of 50 mg/kg/day. Further, the test liquid of Compound-I was prepared by adjusting its dose to 16 mg/kg/day. […] The single-drug administration group was administered 0.5% HPMC or a physiological saline as a vehicle instead of Compound-I or carboplatin. […] FIG. 5 and Table 12 show the results. […] The effect of the combined administration was also statistically determined in the same manner as in Test Example 1. In the figure and the table, the asterisk represents a result having a statistically significant difference compared with the single-drug administration group.

Compound: CC(=O)O[C@H]1C(=O)[C@@]2(C)[C@H]([C@H](OC(=O)c3ccccc3)[C@]3(O)C[C@H](OC(=O)[C@H](O)[C@@H](NC(=O)c4ccccc4)c4ccccc4)C(C)=C1C3(C)C)[C@]1(OC(C)=O)CO[C@@H]1C[C@@H]2O [paclitaxel, reference compound]
- RTV day 15 Mean ± SD [1]: 6.96 ± 1.41
- T/C (%) [1]: 27%
- RTV day 15 Mean ± SD [2]: 1.09 ± 0.40
- T/C (%) [2]: 32%

Compound: CS(=O)(=O)CCNCc1ccc(-c2ccc3ncnc(Nc4ccc(OCc5cccc(F)c5)c(Cl)c4)c3c2)o1 [Lapatinib, lapatinib, reference compound]
- RTV day 15 Mean ± SD [3]: 1.37 ± 0.28
- T/C (%) [3]: 51%

Compound: COc1cccc2c1C(=O)c1c(O)c3c(c(O)c1C2=O)C[C@@](O)(C(=O)CO)C[C@@H]3O[C@H]1C[C@H](N)[C@H](O)[C@H](C)O1 [Doxorubicine, doxorubicin, reference compound]
- T/C (%) [4]: 45%

Compound: CCc1c2c(nc3ccc(OC(=O)N4CCC(N5CCCCC5)CC4)cc13)-c1cc3c(c(=O)n1C2)COC(=O)[C@]3(O)CC [irinotecan, reference compound]
- RTV day 15 Mean ± SD [5]: 11.92 ± 3.68

Compound: CO[C@H]1C[C@@H]2CC[C@@H](C)[C@@](O)(O2)C(=O)C(=O)N2CCCC[C@H]2C(=O)O[C@H]([C@H](C)C[C@@H]2CC[C@@H](OCCO)[C@H](OC)C2)CC(=O)[C@H](C)/C=C(\C)[C@@H](O)[C@@H](OC)C(=O)[C@H](C)C[C@H](C)/C=C/C=C/C=C/1C [Everolimus, everolimus, reference compound]
- RTV day 15 Mean ± SD [6]: 1.32 ± 0.11
- T/C (%) [6]: 47.3%

Compound: N.N.O=C([O-])C1(C(=O)[O-])CCC1.[Pt+2] [Carboplatin, carboplatin, reference compound]
- RTV day 15 Mean ± SD [7]: 20.99 ± 4.57
- T/C (%) [7]: 82%

Source: patent US9375434B2, “Antitumor effect potentiator composed of imidazooxazine compound” (Taiho Pharmaceutical Co., Ltd., priority 2012, dated 2016)
